# Legend:
# oat, wild [1] = assay: Test A postemergence; assay type: in vivo, Avena fatua; settings: postemergence, 10 days
# In short: (§1)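 Seeds in loam–sand blend received a directed preemergence soil spray of compound in non-phytotoxic solvent with surfactant; postemergence plants (2–10 cm, one- to two-leaf stage) were sprayed with the same formulation. After 10 days in greenhouse, injury was rated visually versus untreated controls, 0 (no effect) to 100 (complete control).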
# foxtail, giant [2] = assay: Test A preemergence; assay type: in vivo, Setaria faberi
# In short: as §1
# corn [3] = assay: Test A postemergence; assay type: in vivo, Zea mays; settings: postemergence, 10 days
# In short: as §1
# foxtail, giant [4] = assay: Test A postemergence; assay type: in vivo, Setaria faberi; settings: postemergence, 10 days
# In short: as §1
# ragweed [5] = assay: Test A preemergence; assay type: in vivo, Ambrosia artemisiifolia
# In short: as §1
# horseweed = assay: Test A postemergence; assay type: in vivo, Erigeron canadensis; settings: postemergence, 10 days
# In short: as §1
# ryegrass, Italian [6] = assay: Test A preemergence; assay type: in vivo, Lolium multiflorum
# In short: as §1
# goosegrass [7] = assay: Test A postemergence; assay type: in vivo, Eleusine indica; settings: postemergence, 10 days
# In short: as §1
# ryegrass, Italian [8] = assay: Test A postemergence; assay type: in vivo, Lolium multiflorum; settings: postemergence, 10 days
# In short: as §1
# kochia [9] = assay: Test A preemergence; assay type: in vivo, Bassia scoparia
# In short: as §1
# ragweed [10] = assay: Test A postemergence; assay type: in vivo, Ambrosia artemisiifolia; settings: postemergence, 10 days
# In short: as §1
# wheat [11] = assay: Test A postemergence; assay type: in vivo, Triticum aestivum; settings: postemergence, 10 days
# In short: as §1
# oat, wild [12] = assay: Test A preemergence; assay type: in vivo, Avena fatua
# In short: as §1
# barnyardgrass = assay: Test B flooded paddy test; assay type: in vivo, Echinochloa crus-galli; settings: 250 g ai/ha, Flood, 13 days, 0 to 100 scale (0 no effect, 100 complete control)
# In short: (§2)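 Compound is introduced into paddy water covering soil by 3 cm, treating plants that have reached two leaves. Pots are kept flooded at that depth under greenhouse conditions. Assessment at 13 days gives a 0–100 visual control score.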
# pigweed, palmer [13] = assay: Test A postemergence; assay type: in vivo, Amaranthus palmeri; settings: postemergence, 10 days
# In short: as §1
# corn [14] = assay: Test A preemergence; assay type: in vivo, Zea mays
# In short: as §1
# goosegrass [15] = assay: Test A preemergence; assay type: in vivo, Eleusine indica
# In short: as §1
# rice = assay: Test B flooded paddy test; assay type: in vivo, Oryza sativa; settings: 250 g ai/ha, Flood, 13 days, 0 to 100 scale (0 no effect, 100 complete control)
# In short: as §2
# pigweed, palmer [16] = assay: Test A preemergence; assay type: in vivo, Amaranthus palmeri
# In short: as §1
# soybean [17] = assay: Test A postemergence; assay type: in vivo, Glycine max; settings: postemergence, 10 days
# In short: as §1
# ducksalad = assay: Test B flooded paddy test; assay type: in vivo, Heteranthera limosa; settings: 250 g ai/ha, Flood, 13 days, 0 to 100 scale (0 no effect, 100 complete control)
# In short: as §2
# blackgrass [18] = assay: Test A preemergence; assay type: in vivo, Alopecurus myosuroides
# In short: as §1
# blackgrass [19] = assay: Test A postemergence; assay type: in vivo, Alopecurus myosuroides; settings: postemergence, 10 days
# In short: as §1
# wheat [20] = assay: Test A preemergence; assay type: in vivo, Triticum aestivum
# In short: as §1
# kochia [21] = assay: Test A postemergence; assay type: in vivo, Bassia scoparia; settings: postemergence, 10 days
# In short: as §1
# sedge, umbrella = assay: Test B flooded paddy test; assay type: in vivo, Cyperus difformis; settings: 250 g ai/ha, Flood, 13 days, 0 to 100 scale (0 no effect, 100 complete control)
# In short: as §2
# soybean [22] = assay: Test A preemergence; assay type: in vivo, Glycine max
# In short: as §1
# [23] = 125 g ai/ha, 0 to 100 scale, 0 no effect, 100 complete control
# [24] = 500 g ai/ha, visual injury, 0 to 100 scale (0 no effect, 100 complete control)
# [25] = 125 g ai/ha, visual injury after 10 days, 0 to 100 scale, 0 is no effect, 100 is complete control
# [26] = 500 g ai/ha, 0 to 100 scale (0 no effect, 100 complete control), 10 days
structure (smiles),measurement,setting,value
C[C@H]1CN(C(=O)c2cccc(-n3cnc(Br)n3)c2)c2cccc(Cl)c2O1 [Compound 85],"Oat, Wild plant response rating","oat, wild [1]; [23]",20
same,"Plant response rating, Oat, Wild","oat, wild [1]; [24]",30
same,"Plant response rating, Foxtail, Giant","foxtail, giant [2]; [25]",30
same,"Plant response rating, Foxtail, Giant","foxtail, giant [2]; [26]",90
same,Corn plant response rating,corn [3]; [23],10
same,"Plant response rating, Corn",corn [3]; [24],10
same,"Foxtail, Giant plant response rating","foxtail, giant [4]; [23]",20
same,"Plant response rating, Foxtail, Giant","foxtail, giant [4]; [24]",40
same,"Plant response rating, Ragweed",ragweed [5]; [25],0
same,"Plant response rating, Ragweed",ragweed [5]; [26],0
same,Horseweed plant response rating,horseweed; [23],20
same,"Plant response rating, Horseweed",horseweed; [24],50
same,"Plant response rating, Ryegrass, Italian","ryegrass, Italian [6]; [25]",90
same,"Plant response rating, Ryegrass, Italian","ryegrass, Italian [6]; [26]",90
same,Goosegrass plant response rating,goosegrass [7]; [23],0
same,"Plant response rating, Goosegrass",goosegrass [7]; [24],30
same,"Ryegrass, Italian plant response rating","ryegrass, Italian [8]; [23]",10
same,"Plant response rating, Ryegrass, Italian","ryegrass, Italian [8]; [24]",70
same,"Plant response rating, Kochia",kochia [9]; [25],20
same,"Plant response rating, Kochia",kochia [9]; [26],80
same,Ragweed plant response rating,ragweed [10]; [23],0
same,"Plant response rating, Ragweed",ragweed [10]; [24],20
same,Wheat plant response rating,wheat [11]; [23],0
same,"Plant response rating, Wheat",wheat [11]; [24],10
same,"Plant response rating, Oat, Wild","oat, wild [12]; [25]",0
same,"Plant response rating, Oat, Wild","oat, wild [12]; [26]",10
same,"Plant response rating, Barnyardgrass",barnyardgrass,0
same,"Pigweed, Palmer plant response rating","pigweed, palmer [13]; [23]",70
same,"Plant response rating, Pigweed, Palmer","pigweed, palmer [13]; [24]",80
same,"Plant response rating, Corn",corn [14]; [25],0
same,"Plant response rating, Corn",corn [14]; [26],0
same,"Plant response rating, Goosegrass",goosegrass [15]; [25],80
same,"Plant response rating, Goosegrass",goosegrass [15]; [26],100
same,"Plant response rating, Rice",rice,0
same,"Plant response rating, Pigweed, Palmer","pigweed, palmer [16]; [25]",70
same,"Plant response rating, Pigweed, Palmer","pigweed, palmer [16]; [26]",60
same,Soybean plant response rating,soybean [17]; [23],100
same,"Plant response rating, Soybean",soybean [17]; [24],100
same,"Plant response rating, Ducksalad",ducksalad,0
same,"Plant response rating, Blackgrass",blackgrass [18]; [25],0
same,"Plant response rating, Blackgrass",blackgrass [18]; [26],30
same,Blackgrass plant response rating,blackgrass [19]; [23],30
same,"Plant response rating, Blackgrass",blackgrass [19]; [24],50
same,"Plant response rating, Wheat",wheat [20]; [25],0
same,"Plant response rating, Wheat",wheat [20]; [26],0
same,Kochia plant response rating,kochia [21]; [23],60
same,"Plant response rating, Kochia",kochia [21]; [24],90
same,"Plant response rating, Sedge, Umbrella","sedge, umbrella",0
same,"Plant response rating, Soybean",soybean [22]; [25],0
same,"Plant response rating, Soybean",soybean [22]; [26],0

# — patent publication US20260262643A1, “HERBICIDAL BENZOXAZINES” (FMC CORPORATION, priority 2022, published 2026)
